Target: T1, human glucocorticoid receptor (Homo sapiens, UniProt P04150)
T1 construct: purified human recombinant full-length glucocorticoid receptor (2 nM); purchased Invitrogen Part #2893
T1 sequence (P04150 1-777): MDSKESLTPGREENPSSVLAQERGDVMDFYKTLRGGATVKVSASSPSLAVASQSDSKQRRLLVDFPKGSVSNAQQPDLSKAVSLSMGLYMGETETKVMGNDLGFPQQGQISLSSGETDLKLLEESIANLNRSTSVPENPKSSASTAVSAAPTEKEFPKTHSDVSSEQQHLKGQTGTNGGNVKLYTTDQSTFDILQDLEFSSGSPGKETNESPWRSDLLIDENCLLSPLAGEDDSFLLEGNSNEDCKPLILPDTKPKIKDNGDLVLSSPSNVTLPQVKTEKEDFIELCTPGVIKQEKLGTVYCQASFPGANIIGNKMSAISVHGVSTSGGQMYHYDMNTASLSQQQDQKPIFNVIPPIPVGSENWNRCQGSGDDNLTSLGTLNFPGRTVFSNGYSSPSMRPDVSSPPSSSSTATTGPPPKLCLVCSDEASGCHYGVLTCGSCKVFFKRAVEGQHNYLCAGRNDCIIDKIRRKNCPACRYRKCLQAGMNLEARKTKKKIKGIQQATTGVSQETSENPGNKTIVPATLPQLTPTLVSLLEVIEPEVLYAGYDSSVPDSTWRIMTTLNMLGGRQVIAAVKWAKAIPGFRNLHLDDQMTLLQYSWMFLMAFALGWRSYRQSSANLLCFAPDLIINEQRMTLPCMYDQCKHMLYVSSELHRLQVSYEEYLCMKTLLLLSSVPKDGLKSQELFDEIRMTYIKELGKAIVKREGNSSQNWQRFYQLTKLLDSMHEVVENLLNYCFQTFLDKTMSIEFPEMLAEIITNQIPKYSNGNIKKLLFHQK
Test: Glucocorticoid Receptor Binding Assay (I), fluorescence polarization competitor kit
Details: purified human recombinant full-length GR, Fluormone GS Red
Method: Glucocorticoid Receptor Binding Assay (I)^a
In order to assess the affinity of test compounds for the human glucocorticoid receptor, a commercially available kit was used (Glucocorticoid Receptor Competitor Assay Kit, Invitrogen Part #2893). Briefly, purified human recombinant full-length glucocorticoid receptor (2 nM) was mixed with fluorescently labeled glucocorticoid (1 nM Fluormone GS Red) in the presence or absence of test compound. After two hour incubation at room temperature in the dark, the fluorescence polarization (FP) of the samples was measured. The FP of a mixture of receptor, fluorescent probe (i.e. Fluormone GS Red) and 5 μM dexamethasone represented background fluorescence or 100% inhibition, whereas, the FP of the mixture without dexamethasone (but in the presence of vehicle) was taken to be 100% binding. The percentage inhibition of test compounds were then compared to the sample with 5 μM dexamethasone and expressed as % relative binding activity with dexamethasone being 100% and no inhibition is 0%. Test compounds were analyzed in the concentration range from 8.5E-05 μM to 5 μM.

Going from `C[C@@H](C(=O)Nc1nncs1)[C@H](c1cccc(F)c1)c1ccc(-c2ccc(C(=O)N3CCC3)c(F)c2)s1` [Example 122, (2R,3R)-3-(5-(4-(1-azetidinylcarbonyl)-3-fluorophenyl)-2-thienyl)-3-(3-fluorophenyl)-2-methyl-N-1,3,4-thiadiazol-2-ylpropanamide] to `C[C@@H](C(=O)Nc1nncs1)[C@@H](c1cccc(F)c1)c1ccc(-c2ccc(C(=O)N3CCOCC3)c(Cl)c2)s1` [Example 130, (2R,3S)-3-(5-(3-chloro-4-(4-morpholinylcarbonyl)phenyl)-2-thienyl)-3-(3-fluorophenyl)-2-methyl-N-1,3,4-thiadiazol-2-ylpropanamide], the Ki rises from 1.91 nM to 160 nM (84-fold).

Going from `CC(C(=O)Nc1nncs1)C(c1ccccc1)c1ccc(Br)s1` (mixture of isomers) [Example 132, 3-(5-bromo-2-thienyl)-2-methyl-3-phenyl-N-1,3,4-thiadiazol-2-ylpropanamide] to `C[C@H](C(=O)Nc1nncs1)[C@@H](c1ccccc1)c1ccc(Br)s1` [Example 133, (2S,3S)-3-(5-bromo-2-thienyl)-2-methyl-3-phenyl-N-1,3,4-thiadiazol-2-ylpropanamide], the Ki rises from 3.2 nM to 4.85 nM (1.5-fold). The first binds more tightly here.

`C[C@H](C(=O)Nc1nncs1)[C@@H](c1cccc(F)c1)c1ccc(-c2ccc(C(=O)N3CCOCC3)c(Cl)c2)s1` [Example 124, (2S,3S)-3-(5-(3-chloro-4-(4-morpholinylcarbonyl)phenyl)-2-thienyl)-3-(3-fluorophenyl)-2-methyl-N-1,3,4-thiadiazol-2-ylpropanamide] and `C[C@H](C(=O)Nc1nncs1)[C@@H](c1cccc(F)c1)c1ccc(-c2ccc(C(=O)N(C)C)c(Cl)c2)s1` [Example 123, 2-chloro-4-(5-((1S,2S)-1-(3-fluorophenyl)-2-methyl-3-oxo-3-(1,3,4-thiadiazol-2-ylamino)propyl)-2-thienyl)-N,N-dimethylbenzamide] are within 1.5-fold of each other in Ki: 7.27 nM for the first, 7.16 nM for the second.

First: COC(=O)c1ccc(-c2ccc(C(c3ccccc3)C(C)(C)C(=O)Nc3nncs3)s2)cc1F (stereo not drawn) [Example 53, methyl 4-(5-(2,2-dimethyl-3-oxo-1-phenyl-3-(1,3,4-thiadiazol-2-ylamino)propyl)-2-thienyl)-2-fluorobenzoate]
Second: CCNC(=O)c1ccc(-c2ccc([C@H](c3cccc(F)c3)C(C)(C)C(=O)Nc3nncs3)s2)cc1 [Example 73, N-ethyl-4-(5-((1R)-1-(3-fluorophenyl)-2,2-dimethyl-3-oxo-3-(1,3,4-thiadiazol-2-ylamino)propyl)-2-thienyl)benzamide]
The Ki of the first is 25-fold higher: 152 nM for the first, 6.13 nM for the second.

Going from `CCN(C)C(=O)c1ccc(-c2ccc([C@@H](c3cccc(F)c3)[C@@H](C)C(=O)Nc3ncc(C)s3)s2)cc1` [Example 142, N-ethyl-4-(5-((1R,2R)-1-(3-fluorophenyl)-2-methyl-3-((5-methyl-1,3-thiazol-2-yl)amino)-3-oxopropyl)-2-thienyl)-N-methylbenzamide] to `C[C@H](C(=O)Nc1nncs1)[C@H](c1cccc(F)c1)c1ccc(-c2ccc(C(=O)N(C)C)cc2)s1` [Example 128, 4-(5-((1R,2S)-1-(3-fluorophenyl)-2-methyl-3-oxo-3-(1,3,4-thiadiazol-2-ylamino)propyl)-2-thienyl)-N,N-dimethylbenzamide], the Ki rises from 3.2 nM to 277 nM (87-fold).

First: CCN(CC)C(=O)c1ccc(-c2ccc([C@H](c3cccc(F)c3)C(C)(C)C(=O)Nc3nncs3)s2)cc1 [Example 69, N,N-diethyl-4-(5-((1R)-1-(3-fluorophenyl)-2,2-dimethyl-3-oxo-3-(1,3,4-thiadiazol-2-ylamino)propyl)-2-thienyl)benzamide]
Second: CC(C)(C)NC(=O)c1ccc(-c2ccc([C@H](c3cccc(F)c3)C(C)(C)C(=O)Nc3nncs3)s2)cc1 [Example 76, N-tert-butyl-4-(5-((1R)-1-(3-fluorophenyl)-2,2-dimethyl-3-oxo-3-(1,3,4-thiadiazol-2-ylamino)propyl)-2-thienyl)benzamide]
The Ki of the first is 26-fold lower: 1.03 nM for the first, 27 nM for the second.

First: CC(C)(C(=O)Nc1nncs1)C(c1ccccc1)c1ccc(Br)s1 (single isomer, unassigned) [Example 85, 3-(5-bromo-2-thienyl)-2,2-dimethyl-3-phenyl-N-1,3,4-thiadiazol-2-ylpropanamide]
Second: CC(C)(C(=O)Nc1nncs1)C(c1ccccc1)c1ccc(-c2ccc(C(=O)N3CCC(F)(F)CC3)cc2)s1 (stereo not drawn) [Example 55, 3-(5-(4-((4,4-Difluoro-1-piperidinyl)carbonyl)phenyl)-2-thienyl)-2,2-dimethyl-3-phenyl-N-1,3,4-thiadiazol-2-ylpropanamide]
The Ki of the first is 13-fold lower: 2.74 nM for the first, 36.8 nM for the second.

Target: T2, human full-length glucocorticoid receptor (Homo sapiens, UniProt P04150)
T2 construct: recombinantly expressed human full-length glucocorticoid receptor; purchased PanVera Co., Madison, Wis; P2816
T2 sequence (P04150 1-777): T1 sequence (P04150 1-777)
Test: Glucocorticoid Receptor Binding Assay (II), fluorescence polarization competitor kit
Details: 1 h, % Relative Binding Affinity to dexamethasone, read-out: GR (% RBA* @ 10 μM) (GR Binding Assay (II)b)
Method: Glucocorticoid Receptor Binding Assay (II)^b
In order to measure the binding of compounds on the glucocorticoid receptor a commercially available kit was used (Glucocorticoid receptor competitor assay kit, PanVera Co., Madison, Wis., P2816). Briefly, a cell lysate containing recombinantly expressed human full-length glucocorticoid receptor was mixed with a fluorescently labeled glucocorticoid (1 nM Fluormone GS1) in the presence or absence of test compound. After one hour at room temperature, the fluorescence polarization (FP) of the samples were measured. The FP of a mixture of receptor, fluorescent probe (i.e. Fluormone GS1) and 1 mM dexamethasone represented background fluorescence or 100% inhibition, whereas, the FP of the mixture without dexamethasone was taken to be 100% binding. The percentage inhibition of test molecules were then compared to the sample with 1 mM dexamethasone and expressed as % relative binding activity with dexamethasone being 100% and no inhibition is 0%. Test molecules were analyzed in the concentration range from 2.4 nM to 40 microMolar.

First: CC(C)(C(=O)Nc1nncs1)C(c1ccccc1)c1cnc(N2CCOCC2)c(Cl)c1 (stereo not drawn) [Example 28, 3-(5-chloro-6-(4-morpholinyl)-3-pyridinyl)-2,2-dimethyl-3-phenyl-N-1,3,4-thiadiazol-2-ylpropanamide]
Second: CC(C)(C(=O)Nc1nncs1)C(c1ccccc1)c1ccc(N2CCOCC2)nc1 (single isomer, unassigned) [Example 22, 2,2-Dimethyl-3-(6-(4-morpholinyl)-3-pyridinyl)-3-phenyl-N-1,3,4-thiadiazol-2-ylpropanamide]
The percent relative binding activity vs dexamethasone at 10 µM of the first is lower: 187% for the first, 477% for the second.

First: CC(C)(C(=O)Nc1nccs1)C(c1ccccc1)c1ccncc1 (stereo not drawn) [Example 7, 2,2-dimethyl-3-phenyl-3-(4-pyridinyl)-N-1,3-thiazol-2-ylpropanamide]
Second: CC(C)(C(=O)Nc1nccs1)C(c1ccccc1)c1ccc(-c2ccoc2)nc1 (stereo not drawn) [Example 25, 3-(6-(3-furyl)-3-pyridinyl)-2,2-dimethyl-3-phenyl-N-1,3-thiazol-2-ylpropanamide]
The percent relative binding activity vs dexamethasone at 10 µM of the first is higher: 161% for the first, 73.4% for the second.

First: CC(C)(C(=O)Nc1nccs1)C(c1ccc(N2CCOCC2)cc1)c1cccs1 (stereo not drawn) [Example 12, 2,2-dimethyl-3-(4-(4-morpholinyl)phenyl)-N-1,3-thiazol-2-yl-3-(2-thienyl)propanamide]
Second: CC(C)(C(=O)Nc1nccs1)C(c1ccccc1)c1ccc(N2CCOCC2)nc1 (single isomer, unassigned) [Example 20, 2,2-Dimethyl-3-(6-(4-morpholinyl)-3-pyridinyl)-3-phenyl-N-1,3-thiazol-2-ylpropanamide]
The percent relative binding activity vs dexamethasone at 10 µM of the first is lower: 6.1% for the first, 152% for the second.

First: CC(C)(C(=O)Nc1nncs1)C(c1ccccc1)c1ccc(N2CCCC2)nc1 (stereo not drawn) [Example 16, 2,2-dimethyl-3-phenyl-3-(6-(1-pyrrolidinyl)-3-pyridinyl)-N-1,3,4-thiadiazol-2-ylpropanamide]
Second: Cc1ccc(CNc2ccc(C(c3ccccc3)C(C)(C)C(=O)Nc3nccs3)cn2)cc1 (stereo not drawn) [Example 18, 2,2-dimethyl-3-(6-((4-methylbenzyl)amino)-3-pyridinyl)-3-phenyl-N-1,3-thiazol-2-ylpropanamide]
The percent relative binding activity vs dexamethasone at 10 µM of the first is higher: 90.4% for the first, 37.2% for the second.

First: CC(C)(C(=O)Nc1nncs1)C(c1cccc(F)c1)c1ccc(Br)s1 (stereo not drawn) [Example 1, 3-(5-Bromo-2-thienyl)-3-(3-fluorophenyl)-2,2-dimethyl-N-1,3,4-thiadiazol-2-ylpropanamide]
Second: CC(C)(C(=O)Nc1nccs1)C(c1cccc(F)c1)c1ccc(Br)s1 (stereo not drawn) [Example 2, 3-(5-bromo-2-thienyl)-3-(3-fluorophenyl)-2,2-dimethyl-N-1,3-thiazol-2-ylpropanamide]
The percent relative binding activity vs dexamethasone at 10 µM of the first is lower: 6.4% for the first, 10.1% for the second.

— patent publication US8222247B2, “Modulators of glucocorticoid receptor, AP-1, and/or NF-kappabeta activity and use thereof” (Bristol-Myers Squibb Company, priority 2006, dated 2012)
